Measured values taken from ChEMBL document CHEMBL1124293, “2,4-Diamino-6,7-dimethoxyquinoline derivatives as alpha 1-adrenoceptor antagonists and antihypertensive agents” (J Med Chem, 1988).

What was measured:
[1] = target: T1, Adrenergic receptor alpha-2 (Rattus norvegicus) (UniProt P22086+P19328+P22909); assay: Binding affinity towards alpha-2 adrenergic receptor from rat brain homogenate preparation by displacement of [3H]clonidine at 10e-6 M concentration; type: tissue-based
[2] = target: T2, Adrenergic receptor alpha-1 (Rattus norvegicus, UniProt P15823+P23944+P43140); assay: Binding affinity towards alpha-1 adrenergic receptor from rat brain homogenate preparation by displacement of [3H]prazosin; type: tissue-based
T2 sequence (P15823 whole entry): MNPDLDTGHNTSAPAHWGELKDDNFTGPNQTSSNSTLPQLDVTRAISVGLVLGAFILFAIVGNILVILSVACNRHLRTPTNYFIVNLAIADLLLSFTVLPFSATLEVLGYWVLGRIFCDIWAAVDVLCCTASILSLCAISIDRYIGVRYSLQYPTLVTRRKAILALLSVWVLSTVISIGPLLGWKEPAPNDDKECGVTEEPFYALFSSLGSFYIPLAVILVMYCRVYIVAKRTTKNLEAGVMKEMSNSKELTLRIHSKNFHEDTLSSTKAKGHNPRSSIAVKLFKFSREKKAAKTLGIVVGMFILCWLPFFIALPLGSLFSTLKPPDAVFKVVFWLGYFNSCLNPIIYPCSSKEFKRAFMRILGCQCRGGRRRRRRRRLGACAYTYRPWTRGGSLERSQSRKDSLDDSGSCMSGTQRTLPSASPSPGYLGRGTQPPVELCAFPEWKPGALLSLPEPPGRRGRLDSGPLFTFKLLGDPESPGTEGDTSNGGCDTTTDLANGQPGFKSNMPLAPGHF
T2 sequence (P23944 whole entry): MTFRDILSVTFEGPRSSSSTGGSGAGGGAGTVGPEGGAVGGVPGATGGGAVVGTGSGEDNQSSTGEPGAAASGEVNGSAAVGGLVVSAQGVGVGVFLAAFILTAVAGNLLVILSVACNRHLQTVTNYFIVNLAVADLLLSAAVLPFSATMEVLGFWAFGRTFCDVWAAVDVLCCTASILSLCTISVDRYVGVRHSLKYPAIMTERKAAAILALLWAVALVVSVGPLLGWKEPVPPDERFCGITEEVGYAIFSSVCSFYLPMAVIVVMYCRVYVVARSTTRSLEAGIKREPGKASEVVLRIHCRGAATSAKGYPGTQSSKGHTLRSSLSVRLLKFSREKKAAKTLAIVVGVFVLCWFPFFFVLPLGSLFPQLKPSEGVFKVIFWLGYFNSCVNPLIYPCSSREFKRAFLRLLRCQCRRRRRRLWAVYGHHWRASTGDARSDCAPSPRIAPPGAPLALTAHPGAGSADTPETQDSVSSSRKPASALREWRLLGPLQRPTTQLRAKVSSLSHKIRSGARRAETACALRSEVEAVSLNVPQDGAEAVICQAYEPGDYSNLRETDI
T2 sequence (P43140 whole entry): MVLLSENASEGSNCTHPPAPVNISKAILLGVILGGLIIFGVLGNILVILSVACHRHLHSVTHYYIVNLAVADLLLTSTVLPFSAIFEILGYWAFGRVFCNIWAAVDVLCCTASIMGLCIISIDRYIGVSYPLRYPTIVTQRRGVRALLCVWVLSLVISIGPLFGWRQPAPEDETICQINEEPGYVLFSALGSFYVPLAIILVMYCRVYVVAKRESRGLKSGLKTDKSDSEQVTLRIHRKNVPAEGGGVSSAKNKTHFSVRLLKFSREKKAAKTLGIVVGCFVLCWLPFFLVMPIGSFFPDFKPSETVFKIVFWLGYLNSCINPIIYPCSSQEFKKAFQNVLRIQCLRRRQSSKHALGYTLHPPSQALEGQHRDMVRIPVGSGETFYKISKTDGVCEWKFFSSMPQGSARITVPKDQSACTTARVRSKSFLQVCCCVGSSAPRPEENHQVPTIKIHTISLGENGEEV

Rattus norvegicus [3] = assay: Percent reduction in Spontaneously hypertensive rat blood pressure after 1 hr of 3 mg/kg, po administration; type: functional
Rattus norvegicus [4] = assay: Percent reduction in Spontaneously hypertensive rat blood pressure after 4.5 hr of 3 mg/kg, po administration; type: functional
Rattus norvegicus [5] = assay: Percent reduction in Spontaneously hypertensive rat blood pressure after 1 h of 3 mg/kg, po administration; type: functional
[6] = target: T1, Adrenergic receptor alpha-2 (Rattus norvegicus); assay: Binding affinity towards alpha-2 adrenergic receptor from rat brain homogenate preparation by displacement of [3H]clonidine at 10E-6 M; type: tissue-based
[7] = target: T3, Adrenergic receptor alpha-2 (Rattus norvegicus, UniProt P22086+P19328+P22909); assay: Binding affinity towards alpha-2 adrenergic receptor from rat brain homogenate preparation by displacement of [3H]clonidine; type: tissue-based
T3 sequence (P22086 whole entry): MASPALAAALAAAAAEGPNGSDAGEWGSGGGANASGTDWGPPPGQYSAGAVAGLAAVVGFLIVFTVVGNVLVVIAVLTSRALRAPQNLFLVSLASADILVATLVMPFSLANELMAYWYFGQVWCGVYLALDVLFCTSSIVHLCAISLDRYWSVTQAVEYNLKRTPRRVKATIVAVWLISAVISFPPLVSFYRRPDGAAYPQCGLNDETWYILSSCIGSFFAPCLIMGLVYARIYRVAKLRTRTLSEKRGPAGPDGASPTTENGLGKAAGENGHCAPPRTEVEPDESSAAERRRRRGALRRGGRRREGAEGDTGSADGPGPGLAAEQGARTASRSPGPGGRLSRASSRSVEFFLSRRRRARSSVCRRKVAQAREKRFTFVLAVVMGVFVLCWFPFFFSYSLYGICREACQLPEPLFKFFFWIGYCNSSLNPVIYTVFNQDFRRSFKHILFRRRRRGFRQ
T3 sequence (P19328 whole entry): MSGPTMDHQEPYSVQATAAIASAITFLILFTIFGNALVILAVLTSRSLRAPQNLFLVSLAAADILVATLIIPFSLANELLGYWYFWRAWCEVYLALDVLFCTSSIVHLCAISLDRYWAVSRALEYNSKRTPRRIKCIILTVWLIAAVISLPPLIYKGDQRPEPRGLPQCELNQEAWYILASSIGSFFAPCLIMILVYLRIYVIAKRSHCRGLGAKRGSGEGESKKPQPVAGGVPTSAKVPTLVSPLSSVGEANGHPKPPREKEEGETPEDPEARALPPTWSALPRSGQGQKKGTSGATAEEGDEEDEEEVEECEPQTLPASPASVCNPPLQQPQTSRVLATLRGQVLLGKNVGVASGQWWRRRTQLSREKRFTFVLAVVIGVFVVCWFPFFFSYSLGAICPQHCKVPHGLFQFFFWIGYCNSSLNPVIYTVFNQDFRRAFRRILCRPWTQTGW
T3 sequence (P22909 whole entry): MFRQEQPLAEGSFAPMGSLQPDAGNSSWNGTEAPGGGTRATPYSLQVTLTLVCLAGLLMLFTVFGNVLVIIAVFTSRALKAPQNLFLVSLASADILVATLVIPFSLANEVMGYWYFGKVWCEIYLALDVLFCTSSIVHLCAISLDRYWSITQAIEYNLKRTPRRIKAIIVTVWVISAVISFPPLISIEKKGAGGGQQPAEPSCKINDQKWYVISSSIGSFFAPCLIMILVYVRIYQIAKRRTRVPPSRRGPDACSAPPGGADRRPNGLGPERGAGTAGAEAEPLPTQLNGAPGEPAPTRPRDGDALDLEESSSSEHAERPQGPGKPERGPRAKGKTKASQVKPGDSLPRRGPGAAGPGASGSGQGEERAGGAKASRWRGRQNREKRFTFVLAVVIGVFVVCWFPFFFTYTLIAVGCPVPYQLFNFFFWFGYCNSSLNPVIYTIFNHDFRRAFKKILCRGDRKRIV

[8] = target: T1, Adrenergic receptor alpha-2 (Rattus norvegicus); assay: Binding affinity towards alpha-2 adrenergic receptor from rat brain homogenate preparation by displacement of [3H]clonidine at 10e-6 M; type: tissue-based

Structure (SMILES) | Displacement [1] [%] | Ki [2] [pM] | Reduction (Rattus norvegicus [3]) [%] | Reduction (Rattus norvegicus [4]) [%] | Reduction (Rattus norvegicus [5]) [%] | Displacement [6] [%] | Ki [7] [pM] | Displacement [8] [%]
COc1cc2nc(N3CCN(C(=O)c4ccco4)CC3)cc(N)c2cc1OC | < 50 | 140 | 32 | 25 | – | – | – | –
COc1cc2nc(N3CCN(C(=O)c4ccco4)CC3)nc(N)c2cc1OC [PRAZOSIN] | – | – | – | 15 | 24 | – | – | –
COc1cc2nc(N(C)C)cc(N)c2cc1OC | – | – | – | 11 | 12 | < 50 | – | –
COc1cc2nc(N3CCN(c4nccc(N(C)C)n4)CC3)cc(N)c2cc1OC | – | 460 | – | 19 | 16 | – | 55300 | –
COc1cc2nc(N3CCN(c4ccccc4)CC3)cc(N)c2cc1OC | – | 1720 | – | 24 | 8 | – | 51600 | –
COc1cc2nc(N3CCN(c4nccc(C)n4)CC3)cc(N)c2cc1OC | < 50 | 630 | – | 8 | 10 | – | – | –
COc1cc2nc(N3CCN(C(=O)Nc4ccccc4)CC3)cc(N)c2cc1OC | – | 340 | – | 25 | 20 | – | 66000 | –
COc1cc2nc(N3CCCCC3)cc(N)c2cc1OC | < 50 | 2930 | – | 6 | 6 | – | – | –
C=CCNC(=O)N1CCN(c2cc(N)c3cc(OC)c(OC)cc3n2)CC1 | < 50 | 290 | – | 17 | 15 | – | – | –
COc1cc2nc(N3CCN(C(C)=O)CC3)cc(N)c2cc1OC | – | 1170 | – | 7 | 4 | – | – | –
COc1cc2nc(N3CCNCC3)cc(N)c2cc1OC | < 50 | 30060 | – | 14 | 11 | – | – | –
COc1cc2nc(N3CCN(C(=O)C4COc5ccccc5O4)CC3)cc(N)c2cc1OC (stereo not drawn) | < 50 | 810 | – | 13 | 6 | – | – | –
COc1cc2nc(N3CCN(C(=O)c4ccccc4)CC3)cc(N)c2cc1OC | – | 490 | – | 19 | 19 | – | – | < 50
CCCNC(=O)N1CCN(c2cc(N)c3cc(OC)c(OC)cc3n2)CC1 | < 50 | 440 | – | 8 | 3 | – | – | –
COc1cc2nc(N3CCN(Cc4ccccc4)CC3)cc(N)c2cc1OC | – | – | – | 10 | 8 | – | – | –
CCOc1ccnc(N2CCN(c3cc(N)c4cc(OC)c(OC)cc4n3)CC2)n1 | < 50 | 420 | – | 22 | 19 | – | – | –
